Data set [1] concerns the target T1, Melanin-concentrating hormone receptor 1 (Homo sapiens, UniProt Q99705). The data set can be described thus: Displacement of [125I]MCH from human MCHR1 expressed in HEK293 cells. The format is cell-based.
Data set [2] in a line: Metabolic stability assessed as intrinsic clearance in human liver microsomes. Type of data set: ADME, Microsome. A general note: Microsomes from liver hold many membrane-bound enzymes, among them those of drug oxidation.
In data set [3] the target is T1, Melanin-concentrating hormone receptor 1. Kind of data set: Antagonist activity at human MCHR1 expressed in HEK293 cells assessed as [35S]GTP-gamma-S accumulation. Type of data set: functional, cell-based.
A short description of data set [4]: Tmax in C57BL/6J mouse plasma at 20 umol/kg, iv and 20 umol/kg, po. The format is ADME, organism-based.
Data set [5] in a line: Half life in C57BL/6J mouse plasma at 20 umol/kg, iv and 20 umol/kg, po. The format is ADME, organism-based.
A short description of data set [6]: Oral bioavailability in C57BL/6J mouse at 20 umol/kg. The format is ADME, organism-based. Particulars: in vivo.
The nature of data set [7]: Fraction unbound in C57BL/6J mouse plasma. Type of data set: ADME, cell-free.
Data set [8] can be described thus: Cmax in C57BL/6J mouse plasma at 20 umol/kg, iv and 20 umol/kg, po. The format is ADME, organism-based.
The nature of data set [9]: Tmax in C57BL/6J mouse brain at 20 umol/kg, iv and 20 umol/kg, po. The format is ADME, organism-based.
A short description of data set [10]: Volume of distribution at steady state in C57BL/6J mouse at 20 umol/kg, iv and 20 umol/kg, po. The note with it: in vivo, read-out: Vdss. Type of data set: ADME, organism-based.
Data set [11] can be described thus: Ratio of Cmax in brain to plasma in C57BL/6J mouse at 20 umol/kg, iv and 20 umol/kg, po. Particulars: read-out: BPR. Type of data set: ADME, organism-based.
Another data set relates to Mus musculus. Kind of data set: Cmax in C57BL/6J mouse brain at 20 umol/kg, iv and 20 umol/kg, po. Type of data set: ADME, organism-based. Particulars: in vivo.
Data set [12] is described as follows: Clearance in C57BL/6J mouse at 20 umol/kg, iv and 20 umol/kg, po. Particulars: in vivo. Type of data set: ADME, organism-based.

T1 sequence (Q99705 whole entry): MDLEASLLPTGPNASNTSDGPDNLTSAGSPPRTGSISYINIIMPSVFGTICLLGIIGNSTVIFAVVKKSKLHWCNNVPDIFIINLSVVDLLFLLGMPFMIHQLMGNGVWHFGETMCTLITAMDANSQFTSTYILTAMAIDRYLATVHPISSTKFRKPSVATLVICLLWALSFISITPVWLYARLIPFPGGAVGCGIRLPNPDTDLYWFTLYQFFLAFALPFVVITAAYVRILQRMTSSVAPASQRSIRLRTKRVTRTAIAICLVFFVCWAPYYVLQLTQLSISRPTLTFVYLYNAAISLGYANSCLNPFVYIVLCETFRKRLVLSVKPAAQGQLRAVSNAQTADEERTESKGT

In [1], `Clc1cccc2ccc(N[C@H]3CCC[C@H](NCc4ccsc4)C3)nc12` had an IC50 of 5100 nM. Further, in data set [2], the microsomal CLint came to 15 µL/min/mg.

For the compound `COc1cccc2nc(N[C@H]3CCC[C@H](NCc4ccsc4)C3)ccc12`, the IC50 in data set [1] worked out at 54 nM; in data set [3], 42 nM. In addition, the microsomal CLint in data set [2] amounted to 38 µL/min/mg. Consider `COc1ccc2nc(N[C@H]3C[C@H]4C[C@@H]3[C@@H](NCc3ccsc3)C4)cc(C)c2c1`, for which the IC50 in data set [1] amounted to 369 nM. Regarding `COc1ccc2nc(NCCNCc3ccsc3)cc(C)c2c1`, the IC50 in data set [1] was found to be 3590 nM. `COc1ccc2nc(N[C@H]3C[C@@H]4C[C@H]3[C@@H](NCc3ccsc3)C4)cc(C)c2c1` yielded an IC50 in data set [1] of 35 nM. With `COc1ccc2c(C)cc(N[C@H]3CCC[C@H](NCc4ccc(Cl)c(Cl)c4)C3)nc2c1`, in data set [1], the IC50 was 13 nM. Also, the intrinsic clearance (microsomal CLint) in [2] worked out at 59 µL/min/mg. For the compound `FC(F)(F)c1cc(N[C@H]2CCC[C@H](NCc3ccsc3)C2)nc2ccccc12`, the concentration for half-maximal inhibition (IC50) in data set [1] is 4800 nM. The microsomal CLint in data set [2] was determined as 68 µL/min/mg. In the case of `c1ccc2nc(N[C@H]3CCC[C@H](NCc4ccsc4)C3)ccc2c1`, the IC50 in data set [1] worked out at 68 nM; in data set [3], 234 nM. In [1], `COc1ccc2nc(N[C@H]3CC[C@H](N(C)Cc4ccsc4)C3)cc(C)c2c1` gave an IC50 of 119 nM.

Consider `COc1ccc2c(C)cc(N[C@H]3CC[C@H](NCc4cn(C)c5cc(C#N)ccc45)C3)nc2c1`, for which the IC50 in data set [1] was 33 nM; in [3], 118 nM. Besides, in data set [2], the microsomal CLint was < 12 µL/min/mg. As for `COc1ccc2c(C)cc(N[C@H]3CC[C@H](NCc4cn(C)c5ccccc45)C3)nc2c1`, the IC50 amounted to 9 nM in data set [1] and 85 nM in [3]. In addition, the microsomal CLint in data set [2] was < 12 µL/min/mg. Compound `COc1ccc2c(C)cc(N[C@H]3CCC[C@H](NCc4cn(C)c5ccc(Br)cc45)C3)nc2c1` returned an IC50 in data set [1] of 61 nM. Also, the microsomal CLint in data set [2] was determined as 41 µL/min/mg.

In data set [1], `COc1ccc2c(C)cc(N[C@H]3CCC[C@H](NCc4cncc5ccccc45)C3)nc2c1` registered an IC50 of 22 nM. Also, in data set [2], the intrinsic metabolic clearance (microsomal CLint) worked out at 500 µL/min/mg. With `COc1ccc2nc(N[C@H]3CCC[C@H](NCc4ccsc4)C3)ccc2c1`, the values for the IC50 in data set [1] and in data set [3] were 57 nM and 25 nM, respectively. In [2], the microsomal CLint was determined as 295 µL/min/mg. For `COc1cc(N[C@H]2CCC[C@H](NCc3ccsc3)C2)nc2ccccc12`, the IC50 in [1] came out at 9 nM; in data set [3], 8 nM.

Compound `COc1ccc2c(C)cc(N[C@H]3CCC[C@H](NCc4cn(C)nc4C)C3)nc2c1` had an IC50 in [1] of 178 nM. Same read-out and setting: the same measure for `N#Cc1cc(N[C@H]2CCC[C@H](NCc3ccsc3)C2)nc2ccccc12`: 9920 nM. Turning to `COc1ccc2c(C)cc(N[C@H]3CC[C@H](NCc4cn(C)c5ccc(C#N)cc45)C3)nc2c1`, the IC50 in data set [1] worked out at 39 nM. For the same compound, the intrinsic clearance (microsomal CLint) in data set [2] is < 12 µL/min/mg. As to `COc1ccc2nc(N[C@@H]3C[C@@H]4C[C@H]3[C@H](NCc3ccsc3)C4)cc(C)c2c1`, the IC50 in data set [1] was 5010 nM.

In the case of `COc1ccc2nc(NCCCCNCc3ccsc3)cc(C)c2c1`, the IC50 in [1] is > 33000 nM. As to `COc1ccc2nc(N[C@H]3CCC[C@H](NCc4ccsc4)C3)cc(C)c2c1`, in data set [1], the IC50 was determined as 3 nM.

In [1], `COc1ccc2nc(NCC3CCCN(Cc4ccsc4)C3)cc(C)c2c1` (stereo not drawn) yielded an IC50 of 2990 nM.

Turning to `COc1ccc2c(C)cc(N[C@H]3CC[C@H](NCc4cn(C)c5ccc(OC(F)F)cc45)C3)nc2c1`, the IC50 in [1] was found to be 5 nM; in [3] it was 35 nM. Besides, in data set [2], the intrinsic metabolic clearance (microsomal CLint) was 12 µL/min/mg. In data set [1], `COc1ccc2nc(NCCCNC(=O)c3ccsc3)cc(C)c2c1` yielded an IC50 of 106 nM. On to `COc1ccc2c(C)cc(N[C@H]3CC[C@H](NCc4cn(C)c5ccc(OCc6ccccc6)cc45)C3)nc2c1`, for which the IC50 in data set [1] was 80 nM. Further, in [2], the microsomal CLint was 26 µL/min/mg. The compound `Clc1ccc2nc(N[C@H]3CCC[C@H](NCc4ccsc4)C3)ccc2c1` returned a half-inhibitory concentration (IC50) in data set [1] of 571 nM. `COc1ccc2nc(N(C)[C@H]3CC[C@H](NCc4ccsc4)C3)cc(C)c2c1` showed an IC50 in [1] of 2300 nM. The same measure, in the same setting: with `COc1ccc(Br)c(CN[C@H]2CCC[C@H](Nc3cc(C)c4ccc(OC)cc4n3)C2)c1` the figure was 28 nM; with `COc1ccc2nc(N[C@H]3CCC[C@H](NCc4ccsc4)C3)c(C)cc2c1`, 1390 nM. Turning to `COc1ccc2c(C)cc(N[C@H]3CCC[C@H](NCc4ccsc4)C3)nc2c1`, the IC50 in data set [1] was 0.1 nM; in [3] it was 1 nM. In data set [2], the microsomal CLint was 32 µL/min/mg.

Regarding `COc1ccc2nc(N3CCC(NCc4ccsc4)CC3)cc(C)c2c1`, the IC50 in data set [1] is 2130 nM.

The compound `COc1ccc2c(C)cc(N[C@H]3CCC[C@H](NCc4cnccn4)C3)nc2c1` showed an IC50 in data set [1] of 89 nM. On to `CN(C)c1cc(N[C@H]2CCC[C@H](NCc3ccsc3)C2)nc2ccccc12`, for which the results for the IC50 in data set [1] and in [3] were 29 nM and 97 nM, respectively. For the same compound, the microsomal CLint in [2] amounted to 30 µL/min/mg. Consider `COc1ccc2nc(NCCCNCc3ccsc3)cc(C)c2c1`, for which the IC50 in data set [1] was found to be 15 nM. In the case of `COc1cc(N[C@H]2CCC[C@H](NCc3ccsc3)C2)nc2ccc(F)cc12`, the IC50 in data set [3] was 90 nM. `COc1ccc2c(C)cc(N[C@H]3CC[C@H](NCc4cn(C)c5c4ccc4cccnc45)C3)nc2c1` yielded an IC50 in data set [1] of 71 nM. Besides, the microsomal CLint in [2] was 12 µL/min/mg. With `COc1ccc2c(C)cc(N[C@H]3CCC[C@H](NCc4ccc(S(C)(=O)=O)cc4Cl)C3)nc2c1`, the concentration for half-maximal inhibition (IC50) in data set [1] was found to be 50 nM. Further, the microsomal CLint in data set [2] was determined as 269 µL/min/mg. Consider `COc1ccc2c(C)cc(N[C@H]3CC[C@H](NCc4cn(C)c5c(C#N)cccc45)C3)nc2c1`, for which the IC50 in data set [1] was 20 nM; in [3] it was 127 nM. Besides, the microsomal CLint in [2] is < 12 µL/min/mg. `COc1ccc2c(C)cc(N[C@H]3CCC[C@H](NCc4ccc5nsnc5c4)C3)nc2c1` registered an IC50 in [1] of 16 nM. Besides, in [2], the intrinsic clearance (microsomal CLint) came to 227 µL/min/mg. As for `Cc1cc(N[C@H]2CCC[C@H](NCc3ccsc3)C2)nc2ccccc12`, the IC50 in data set [1] is 7 nM; in data set [3], 59 nM. Also, the microsomal CLint in data set [2] is 60 µL/min/mg. On to `COc1ccc2nc(N[C@H]3CC[C@H](NCc4ccsc4)C3)cc(C)c2c1`, for which the half-inhibitory concentration (IC50) in data set [1] stood at 62 nM.

Regarding `CC(=O)N(C)c1ccc2nc(N[C@H]3CCC[C@H](NCc4ccsc4)C3)ccc2c1`, in [1], the IC50 stood at 2520 nM. `CN(C)c1ccc2nc(N[C@H]3CCC[C@H](NCc4ccsc4)C3)ccc2c1` registered an IC50 in data set [1] of 847 nM. As to `COc1ccc2c(C)cc(N[C@H]3CCC[C@H](NCc4cccc5nsnc45)C3)nc2c1`, the IC50 in data set [1] is 10 nM. Regarding `COc1ccc2nc(N[C@@H]3CCC[C@@H](NCc4ccsc4)C3)cc(C)c2c1`, the IC50 in data set [1] came to 411 nM.

For the compound `COc1ccc2c(C)cc(N[C@H]3CC[C@H](NCc4cn(C)c5cccnc45)C3)nc2c1`, the results for the time of peak concentration (Tmax) in data set [4] and in data set [9] were 24 h and 0.26 h, respectively. In [5], this compound showed a half-life of 8.6 h. Also, the bioavailability in data set [6] was determined as 100%. In addition, in data set [7], the fraction unbound is 0.065. For the same compound, the Cmax in [8] was 3.78 µM; with Mus musculus it was 0.5 µmol/kg. The results for the IC50 in data set [1] and in data set [3] were 29 nM and 83 nM, respectively. Moreover, the Vd in [10] stood at 7.6 L/kg. In addition, the Kp in [11] stood at 0.13. In data set [12], this compound showed a clearance of 15 mL/min/kg. In data set [2], the microsomal CLint came to 20 µL/min/mg.

Regarding `COc1cc(N[C@H]2CCC[C@H](NCc3ccsc3)C2)nc2ccc(OC(C)C)cc12`, in data set [1], the IC50 stood at 231 nM. In turn, `COc1ccc2c(C)cc(N[C@H]3CCC[C@H](NCc4cn(C(=O)N(C)C)c5ccc(Cl)cc45)C3)nc2c1` had an IC50 in data set [1] of 58 nM. The microsomal CLint in data set [2] was determined as 52 µL/min/mg. On the same counts, the results for `COc1ccc2c(C)cc(N[C@H]3CCC[C@H](NCc4cccc(OC(F)(F)F)c4)C3)nc2c1` are 15 nM and 64 µL/min/mg.

One may read the IC50 as the point on the concentration scale where inhibition reaches its midpoint. Broadly, the microsomal CLint is a measure of how fast metabolising enzymes remove a compound, apart from limits set by blood flow. Broadly, the Tmax is the time from dosing to the highest level. Usually half-life stands for how long it takes for the measured level to halve. Read a low half-life as fast loss. As usually defined, the bioavailability is the share of a dose that reaches the circulation, judged against a reference dose that is usually intravenous. The term fraction unbound denotes free concentration divided by total concentration. A low value points to little free substance.
